We go through four molecules from patent US20240124488A1, “AZA-CRYPTOPHANES, PROCESSES FOR PREPARATION THEREOF, AND THEIR USES” (UNIVERSITE DE CAEN NORMANDIE, priority 2021, published 2024).

Data set [1] is described as follows: Experimental solubility in organic solvents.
Source text: (§1) Experimental Solubility of Cryptophane a (Conventional Cryptophane Outside the Invention)
(§2) Experimental Solubility of Cryptophane-1N
For data set [2] the following is noted: prior art cryptophane; cited from earlier work.
The nature of data set [3]: 129Xe NMR xenon encapsulation. Format: binding. The settings on record: 5 bars, CDCl3, 278 K. The source says: FIG. 1 illustrates the ^129Xe NMR spectrum (5 bars, CDCl3) of cryptophane-1N 12.
^129Xe NMR (5 bars, CDCl3): illustrated in FIG. 1.

A short description of data set [4]: Cavity size by X-ray crystallography. The format is physicochemical. The settings on record: crystals by slow evaporation in dichloromethane at 4° C. How it is done: Crystallographic data of both anti and syn cryptophanes 1N were obtained by slow evaporation in dichloromethane at 4° C. The anti compound has a cavity size of 137.0 Å^3 and the syn compound has a cavity size of 121.4 Å^3, both larger than the size of the prior art cryptophane C (114.5 Å^3).
Anti cryptophanes 1N crystals were also obtained by slow evaporation in anisole, which is too large to enter the cage. This enabled to visualise the conformation of the cryptophane 1N and the size of its cavity without caged compound. The size of the empty cavity is between 85.4 and 86.8 Å^3.

A short description of data set [5]: Encapsulation efficiency by UV spectrophotometry. The format is physicochemical. How it is done:
Cryptophanes concentration were defined using spectrophotometry (Infinite M200, Tecan, Mannedorf, Switzerland) by determining absorbance spectrum of Crytophane in solution in MeOH.
The encapsulation efficiency (EE) was determined after filtration through 0.2 μm syringe filters (Minisart® Syringe Filter, Sartorius, Goettingen, Germany) to remove unentrapped cryptophanes. Then, these samples were diluted in methanol (1/100, v/v) and the concentration of cryptophane was determined by spectrophotometry at 288 nm. The EE was determined in duplicate and calculated as follows: […]
A UV calibration curve for each of the compounds was carried out (see protocol above) using a stock solution of Cr1N in acetonitrile (1.05 mg/mL) and a stock solution of cryptophane A in DMSO (1.85 mg/mL), solutions subsequently diluted in methanol.
The batch of nanoemulsions loaded with Cr1N was diluted 100-fold in methanol. Under these conditions, it was confirmed by DLS that the nanoemulsions were destroyed. The amount of cryptophane in this sample was then determined. The concentration of cryptophane in the sample was 28 μM, i.e. an encapsulation efficiency of 60%.

A further data set in a line: physchem. The settings on record: organic solvent or mixture.

Values joined by “and” are separate entries in the source; they are usually repeats but may differ in a detail not shown here. Equal values may be shown once. Read-outs that look alike come from different tables or passages of the source. Bounds are passed on as bounds.

Source text for physchem: as §1, §2

With `COc1cc2c3cc1OCCOc1cc4c(cc1OC)Cc1cc5c(OC)cc1Cc1cc(c(OC)cc1C4)OCCOc1cc(c(cc1OC)C3)Cc1cc(OC)c(cc1C2)OCCO5` [Cryptophane A], the “Experimental solubility in MeCN” value in data set [1] is reported as “very poorly soluble”.

Consider cryptophane C, for which the cavity size in data set [2] is 114.5 Å^3.

As for `COc1cc2c3cc1OCCOc1ccc4c(c1)Cc1ccc5cc1Nc1ccc(cc1C4)OCCOc1cc(c(cc1OC)C3)Cc1cc(OC)c(cc1C2)OCCO5` [Cryptophane-1N], the Xenon encapsulation entry in data set [3] is “successfully encapsulate xenon”. This molecule showed a cavity size in data set [4] of 137.0 Å^3. Also, the “amount loaded into nanoemulsions relative to cryptophane A” value in data set [5] is reported as “more than twice as much”. Moreover, the solubility (commonly how much of the substance goes into solution per volume) is > 8.27 mM in the data set “physchem” (Experimental solubility in CHCl3); > 59500 µg/mL and > 73800 µM in the data set “physchem” (Experimental solubility in DMSO); > 2.23 mM in “physchem” (Experimental solubility in MeCN).

`COc1cc2c3cc1OCCOc1ccc4c(c1)Cc1ccc5cc1Nc1ccc(cc1C4)OCCOc1cc(c(cc1OC)Cc1cc(c(OC)cc1C3)OCCO5)C2` [Cryptophane-1N Syn] displayed a cavity size in data set [4] of 121.4 Å^3.
